Where “and” joins values, the source holds several entries; their conditions need not be identical. Identical values can stand only once. Toxic doses and inconclusive results are not listed.
System: L1210 leukemia ip in BDF1 mice, survival T/C
Test: NCI In Vivo Anticancer Drug Screen. Data for tumor model L1210 Leukemia (intraperitoneal) in B6D2F1 (BDF1) mice
Settings: endpoint: mean survival time, higher = longer survival
Summary of the method: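 In this screen, tumor-bearing mice given compound are compared to those given vehicle, and their survival values are reported as a treated-to-control quotient.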

[1] = dose: 25.0 mg/kg/injection, schedule: Q01DX009 (ip), vehicle: saline
[2] = dose: 100.0 mg/kg/injection, schedule: Q01DX009 (ip), vehicle: saline with Tween-80
[3] = dose: 200.0 mg/kg/injection, schedule: Q01DX009 (ip), vehicle: saline with Tween-80
[4] = dose: 400.0 mg/kg/injection, schedule: Q01DX009 (ip), vehicle: saline with Tween-80
[5] = dose: 100.0 mg/kg/injection, schedule: Q01DX001 (ip), vehicle: saline
[6] = dose: 200.0 mg/kg/injection, schedule: Q01DX001 (ip), vehicle: saline
[7] = dose: 100.0 mg/kg/injection, schedule: Q01DX009 (ip), vehicle: saline
[8] = dose: 200.0 mg/kg/injection, schedule: Q01DX009 (ip), vehicle: saline
[9] = dose: 400.0 mg/kg/injection, schedule: Q01DX009 (ip), vehicle: saline
[10] = dose: 50.0 mg/kg/injection, schedule: Q01DX009 (ip), vehicle: saline
[11] = dose: 100.0 mg/kg/injection, schedule: Q04DX003 (ip), vehicle: saline
[12] = dose: 200.0 mg/kg/injection, schedule: Q04DX003 (ip), vehicle: saline
[13] = dose: 100.0 mg/kg/injection, schedule: Q04DX003 (ip), vehicle: saline with Tween-80
[14] = dose: 100.0 mg/kg/injection, schedule: Q04DX003 (ip), vehicle: Klucel (hydroxypropylcellulose) (HPC)
[15] = dose: 200.0 mg/kg/injection, schedule: Q04DX003 (ip), vehicle: Klucel (hydroxypropylcellulose) (HPC)
[16] = dose: 400.0 mg/kg/injection, schedule: Q04DX003 (ip), vehicle: Klucel (hydroxypropylcellulose) (HPC)
[17] = dose: 400.0 mg/kg/injection, schedule: Q01DX001 (ip), vehicle: saline
[18] = dose: 100.0 mg/kg/injection, schedule: Q01DX009 (ip), vehicle: Klucel (hydroxypropylcellulose) (HPC)
[19] = dose: 200.0 mg/kg/injection, schedule: Q01DX009 (ip), vehicle: Klucel (hydroxypropylcellulose) (HPC)
[20] = dose: 400.0 mg/kg/injection, schedule: Q01DX009 (ip), vehicle: Klucel (hydroxypropylcellulose) (HPC)
[21] = dose: 100.0 mg/kg/injection, schedule: Q01DX001 (ip), vehicle: carboxymethylcellulose (CMC)
[22] = dose: 200.0 mg/kg/injection, schedule: Q01DX001 (ip), vehicle: carboxymethylcellulose (CMC)
[23] = dose: 400.0 mg/kg/injection, schedule: Q01DX001 (ip), vehicle: carboxymethylcellulose (CMC)

## CCC(=O)NC1=C(N2CC2C)C(=O)C(NC(=O)CC)=C(N2CC2C)C1=O (stereo not drawn)
dose: 3.12 mg/kg/injection, schedule: Q01DX009 (ip), vehicle: saline
  T/C: 111 % of control
dose: 6.25 mg/kg/injection, schedule: Q01DX009 (ip), vehicle: saline
  T/C: 124 % of control
dose: 12.5 mg/kg/injection, schedule: Q01DX009 (ip), vehicle: saline
  T/C: 153 % of control
[1]
  T/C: 177 % of control
dose: 35.0 mg/kg/injection, schedule: Q01DX009 (ip), vehicle: Klucel (hydroxypropylcellulose) (HPC)
  T/C: 103 % of control

## NC(=O)N/N=C/c1ccccc1N
[2]
  T/C: 94 % of control
[3]
  T/C: 94 % of control
[4]
  T/C: 96 % of control

## CN1CCC2CCCCC2C1Cc1ccc(Oc2ccc(CC3C4CCCCC4CCN3C)cc2)cc1 (stereo not drawn)
dose: 0.78 mg/kg/injection, schedule: Q04DX002 (ip), vehicle: Klucel (hydroxypropylcellulose) (HPC)
  T/C: 91 % of control
dose: 1.56 mg/kg/injection, schedule: Q04DX002 (ip), vehicle: Klucel (hydroxypropylcellulose) (HPC)
  T/C: 88 % of control
dose: 3.12 mg/kg/injection, schedule: Q04DX002 (ip), vehicle: Klucel (hydroxypropylcellulose) (HPC)
  T/C: 91 % of control

## NNc1ccccc1
[5]
  T/C: 105 % of control
[6]
  T/C: 111 % of control

## COc1ccc(Cl)cc1NS(=O)(=O)c1c(C)cc(C)cc1C
[7]
  T/C: 104 % of control
[8]
  T/C: 96 % of control
[9]
  T/C: 111 % of control

## Nc1ccc(OCCNS(=O)(=O)c2cccc(S(=O)(=O)F)c2)c(Cl)c1
[10]
  T/C: 97 % of control
[7]
  T/C: 102 % of control
[11]
  T/C: 97 % of control
[12]
  T/C: 97 % of control

## CN(C)/C=N\c1c(C#N)c(CC#N)nn1-c1ccccc1
dose: 25.0 mg/kg/injection, schedule: Q01DX009 (ip), vehicle: saline with Tween-80
  T/C: 98 % of control
dose: 25.0 mg/kg/injection, schedule: Q04DX003 (ip), vehicle: saline with Tween-80
  T/C: 103 % of control
dose: 50.0 mg/kg/injection, schedule: Q01DX009 (ip), vehicle: saline with Tween-80
  T/C: 100 % of control
dose: 50.0 mg/kg/injection, schedule: Q04DX003 (ip), vehicle: saline with Tween-80
  T/C: 93 % of control
[2]
  T/C: 88 % of control
[13]
  T/C: 98 % of control and 99 % of control

## O=C1CCSCCN1
[7]
  T/C: 98 % of control
[11]
  T/C: 97 % of control
[8]
  T/C: 103 % of control
[12]
  T/C: 97 % of control
[9]
  T/C: 101 % of control
dose: 400.0 mg/kg/injection, schedule: Q04DX003 (ip), vehicle: saline
  T/C: 95 % of control

## O=S(=O)(Nc1ccc(Cl)cc1Cl)c1ccccc1
[14]
  T/C: 103 % of control
[15]
  T/C: 103 % of control
[16]
  T/C: 103 % of control

## CC(C)=NNC(=O)c1ccc[n+](C)c1
[5]
  T/C: 102 % of control
[6]
  T/C: 98 % of control
[17]
  T/C: 100 % of control

## CS(=O)(=O)c1ccc(/C=C2/C=Cc3ccccc32)cc1
[18]
  T/C: 95 % of control
[14]
  T/C: 96 % of control
[19]
  T/C: 103 % of control
[15]
  T/C: 96 % of control
[20]
  T/C: 95 % of control
[16]
  T/C: 98 % of control

## O=[N+]([O-])c1ccc(OCCNS(=O)(=O)c2cccc(S(=O)(=O)F)c2)c(Cl)c1
[2]
  T/C: 104 % of control
[13]
  T/C: 97 % of control
[3]
  T/C: 88 % of control
dose: 200.0 mg/kg/injection, schedule: Q04DX003 (ip), vehicle: saline with Tween-80
  T/C: 95 % of control
[4]
  T/C: 90 % of control
dose: 400.0 mg/kg/injection, schedule: Q04DX003 (ip), vehicle: saline with Tween-80
  T/C: 101 % of control

## N#Cc1cc([N+](=O)[O-])c(Cl)c([N+](=O)[O-])c1Cl
dose: 3.13 mg/kg/injection, schedule: Q01DX009 (ip), vehicle: saline with Tween-80
  T/C: 95 % of control
dose: 6.25 mg/kg/injection, schedule: Q01DX009 (ip), vehicle: saline with Tween-80
  T/C: 108 % of control
dose: 6.25 mg/kg/injection, schedule: Q04DX003 (ip), vehicle: saline with Tween-80
  T/C: 98 % of control
dose: 12.5 mg/kg/injection, schedule: Q01DX009 (ip), vehicle: saline with Tween-80
  T/C: 101 % of control
dose: 12.5 mg/kg/injection, schedule: Q04DX003 (ip), vehicle: saline with Tween-80
  T/C: 95 % of control

## ClC1OC(Cl)(Cl)C(Cl)(Cl)OC1(Cl)Cl (stereo not drawn)
[18]
  T/C: 103 % of control
[14]
  T/C: 107 % of control
[19]
  T/C: 93 % of control
[15]
  T/C: 94 % of control
[20]
  T/C: 101 % of control
[16]
  T/C: 96 % of control

## O=C(O)c1ccc2c(c1)C(=O)c1ccccc1-2
[21]
  T/C: 107 % of control
[22]
  T/C: 100 % of control
[23]
  T/C: 107 % of control

## Cc1ccc(NC(=O)N2CCN(c3ccccc3)CC2)c([N+](=O)[O-])c1
[14]
  T/C: 96 % of control
[15]
  T/C: 102 % of control
[16]
  T/C: 91 % of control

## Cc1[nH]c(N)nc(=S)c1CCCNc1ccc(C(=O)NC(CCC(=O)O)C(=O)O)cc1 (stereo not drawn)
dose: 50.0 mg/kg/injection, schedule: Q01DX001 (ip), vehicle: saline
  T/C: 104 % of control
[5]
  T/C: 98 % of control
[18]
  T/C: 93 % of control
[14]
  T/C: 93 % of control
[6]
  T/C: 101 % of control
[19]
  T/C: 104 % of control
[15]
  T/C: 93 % of control
[17]
  T/C: 98 % of control
[20]
  T/C: 98 % of control
[16]
  T/C: 88 % of control

## Cc1cc(O)ccc1C1=[N+](C)CC(C)S1 (stereo not drawn)
dose: 12.5 mg/kg/injection, schedule: Q04DX002 (ip), vehicle: saline
  T/C: 103 % of control
dose: 25.0 mg/kg/injection, schedule: Q04DX002 (ip), vehicle: saline
  T/C: 100 % of control
dose: 50.0 mg/kg/injection, schedule: Q04DX002 (ip), vehicle: saline
  T/C: 103 % of control

## CC1CCCC1OC(=O)c1ccc([N+](=O)[O-])cc1 (stereo not drawn)
[21]
  T/C: 104 % of control
[22]
  T/C: 102 % of control
[23]
  T/C: 93 % of control

## CN(C)CCC(O)(Cc1ccccc1)c1ccccc1 (stereo not drawn)
dose: 50.0 mg/kg/injection, schedule: Q01DX009 (ip), vehicle: Klucel (hydroxypropylcellulose) (HPC)
  T/C: 95 % of control
[18]
  T/C: 101 % of control
[14]
  T/C: 95 % of control
[15]
  T/C: 101 % of control

## CCOC(=O)CNC(=O)Nc1cc(OC)ccc1OC
[2]
  T/C: 96 % of control
[3]
  T/C: 95 % of control
[4]
  T/C: 100 % of control

## CC(=O)Nc1nc2ncc(C=Nc3cncnc3)nc2c(=O)[nH]1
dose: 100.0 mg/kg/injection, schedule: Q01DX001 (ip), vehicle: alkali diluted with saline
  T/C: 108 % of control
dose: 200.0 mg/kg/injection, schedule: Q01DX001 (ip), vehicle: alkali diluted with saline
  T/C: 94 % of control
dose: 400.0 mg/kg/injection, schedule: Q01DX001 (ip), vehicle: alkali diluted with saline
  T/C: 92 % of control

## CC(=O)C1CCCC23CC(CC12)C(C)(C)C3OC=O (stereo not drawn)
[18]
  T/C: 96 % of control
[14]
  T/C: 90 % of control
[19]
  T/C: 100 % of control
[15]
  T/C: 92 % of control
[20]
  T/C: 107 % of control
[16]
  T/C: 95 % of control

## CC(C)NCCC(=O)c1ccc(OCc2ccccc2)cc1
[1]
  T/C: 106 % of control
[10]
  T/C: 110 % of control
[7]
  T/C: 106 % of control and 119 % of control

## N#CCN1C(=O)c2ccccc2C1=O
dose: 12.5 mg/kg/injection, schedule: Q01DX009 (ip), vehicle: Klucel (hydroxypropylcellulose) (HPC)
  T/C: 96 % of control
dose: 12.5 mg/kg/injection, schedule: Q04DX003 (ip), vehicle: Klucel (hydroxypropylcellulose) (HPC)
  T/C: 100 % of control
dose: 25.0 mg/kg/injection, schedule: Q01DX009 (ip), vehicle: Klucel (hydroxypropylcellulose) (HPC)
  T/C: 101 % of control
dose: 25.0 mg/kg/injection, schedule: Q04DX003 (ip), vehicle: Klucel (hydroxypropylcellulose) (HPC)
  T/C: 98 % of control
dose: 50.0 mg/kg/injection, schedule: Q04DX003 (ip), vehicle: Klucel (hydroxypropylcellulose) (HPC)
  T/C: 100 % of control
dose: 75.0 mg/kg/injection, schedule: Q01DX001 (ip), vehicle: other
  T/C: 107 % of control
